Results: patent US12264134B2 (Merck Sharp & Dohme LLC, priority 2018, dated 2025)
Counter-ions that a name gives are not always drawn.

Assays:
IDO1 [1] = target: T1, IDO1 (Homo sapiens, UniProt P14902); test: IDO1 Cellular Assay in HeLa Cells Stimulated with IFNγ; assay type: cell-based; details: read-out: HeLa Cell Potency, IC50
IDO1 [2] = target: T1, IDO1; test: IDO1 Human Whole blood Assay; assay type: cell-based; design: Human whole blood was drawn in sodium heparin coated tubes from healthy internal donors; from tissue; host or cells: human whole blood from healthy donors, stimulated with LPS and IFNγ; details: LPS and IFNγ stimulated, 18 h, read-out: Human Whole Blood Potency, IC50
In short: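 LC/MS/MS of kynurenine, normalized to spiked isotope-labeled standard (3 μM final), served as the readout. Beforehand, fresh human blood with compound (15 min preincubation) was stimulated overnight (18 h, 37 °C) with 100 ng/mL LPS/IFNγ. IC50 was obtained by four-parameter curve fitting.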

T1 sequence (P14902 whole entry): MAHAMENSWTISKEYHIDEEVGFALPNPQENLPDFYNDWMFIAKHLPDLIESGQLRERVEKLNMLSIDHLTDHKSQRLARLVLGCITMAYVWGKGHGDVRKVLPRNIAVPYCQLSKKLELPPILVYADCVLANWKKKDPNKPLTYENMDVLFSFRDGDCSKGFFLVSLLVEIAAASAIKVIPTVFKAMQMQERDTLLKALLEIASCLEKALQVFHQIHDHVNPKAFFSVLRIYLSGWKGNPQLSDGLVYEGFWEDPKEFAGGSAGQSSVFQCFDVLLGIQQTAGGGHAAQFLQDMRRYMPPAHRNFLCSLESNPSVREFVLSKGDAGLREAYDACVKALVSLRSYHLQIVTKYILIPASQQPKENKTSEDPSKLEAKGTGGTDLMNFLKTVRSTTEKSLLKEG

`Cc1cccc(N2CCN(C(=O)Cn3nc(C(=O)N4CCN(S(C)(=O)=O)CC4)c4c3CCC4)CC2)c1C` [Example 127, 1-[4-(2,3-dimethylphenyl)piperazin-1-yl]-2-{3-[4-(methylsulfonyl)piperazine-1-carbonyl]-5,6-dihydrocyclopenta[c]pyrazol-1(4H)-yl}ethan-1-one] gave an IC50 (IDO1 [1]) of 2.36 nM and an IC50 (IDO1 [2]) of 126 nM.
`CC(=O)NC1CCN(C(=O)c2nn(CC(=O)N3CCN(c4cccc(C)c4C)CC3)c3c2CCC3)CC1` [Example 128, N-[1-(1-{2-[4-(2,3-dimethylphenyl)piperazin-1-yl]-2-oxoethyl}-1,4,5,6-tetrahydrocyclopenta[c]pyrazole-3-carbonyl)piperidin-4-yl]acetamide] showed an IC50 (IDO1 [1]) of 4.07 nM and an IC50 (IDO1 [2]) of 192 nM.
For `Cc1cccc(N2CCN(C(=O)Cn3nc(C(=O)N4CCC(n5ncnn5)CC4)c4c3CCC4)CC2)c1C` [Example 129, 1-[4-(2,3-dimethylphenyl)piperazin-1-yl]-2-{3-[4-(2H-tetrazol-2-yl)piperidine-1-carbonyl]-2,6-dihydrocyclopenta[c]pyrazol-1(4H)-yl}ethan-1-one], the IC50 (IDO1 [1]) was 3.08 nM and the IC50 (IDO1 [2]) was 311 nM.
For `Cc1cccc(N2CCN(C(=O)Cn3nc(C(=O)N4CCC(N5CCNC5=O)CC4)c4c3CCC4)CC2)c1C` [Example 130, 1-[1-(1-{2-[4-(2,3-dimethylphenyl)piperazin-1-yl]-2-oxoethyl}-1,4,5,6-tetrahydrocyclopenta[c]pyrazole-3-carbonyl)piperidin-4-yl]imidazolidin-2-one], the IC50 (IDO1 [1]) was 3.54 nM and the IC50 (IDO1 [2]) was 175 nM.
`Cc1cccc(N2CCN(C(=O)Cn3nc(C(=O)N4CCC(O)(CO)CC4)c4c3CCC4)CC2)c1C` [Example 141, 1-[4-(2,3-dimethylphenyl)piperazin-1-yl]-2-{3-[4-hydroxy-4-(hydroxymethyl)piperidine-1-carbonyl]-5,6-dihydrocyclopenta[c]pyrazol-1(4H)-yl}ethan-1-one] showed an IC50 (IDO1 [1]) of 11.3 nM and an IC50 (IDO1 [2]) of 360 nM.
Work on `Cc1cccc(N2CCN(C(=O)Cn3nc(C(=O)N4CCC(c5cn[nH]c5)CC4)c4c3CCC4)CC2)c1C` [Example 142, 1-[4-(2,3-dimethylphenyl)piperazin-1-yl]-2-{3-[4-(1H-pyrazol-4-yl)piperidine-1-carbonyl]-5,6-dihydrocyclopenta[c]pyrazol-1(4H)-yl}ethan-1-one] yielded an IC50 (IDO1 [1]) of 1.29 nM and an IC50 (IDO1 [2]) of 48 nM.
With `Cc1cccc(N2CCN(C(=O)Cn3nc(C(=O)N4CCC5(CCOC5=O)CC4)c4c3CCC4)CC2)c1C` [Example 146, 8-(1-{2-[4-(2,3-dimethylphenyl)piperazin-1-yl]-2-oxoethyl}-1,4,5,6-tetrahydrocyclopenta[c]pyrazole-3-carbonyl)-2-oxa-8-azaspiro[4.5]decan-1-one] the IC50 (IDO1 [1]) was 2.39 nM and the IC50 (IDO1 [2]) was 150 nM.
`Cc1cccc(N2CCN(C(=O)Cn3nc(C(=O)N4CCCC(CO)C4)c4c3CCC4)CC2)c1C` (stereo not drawn) [Example 147, 1-[4-(2,3-dimethylphenyl)piperazin-1-yl]-2-{3-[3-(hydroxymethyl)piperidine-1-carbonyl]-5,6-dihydrocyclopenta[c]pyrazol-1(4H)-yl}ethan-1-one] showed an IC50 (IDO1 [1]) of 2.84 nM and an IC50 (IDO1 [2]) of 607 nM.
For `Cc1cccc(N2CCN(C(=O)Cn3nc(C(=O)N4CCN(CC(F)F)CC4)c4c3CCC4)CC2)c1C` [Example 157, 2-{3-[4-(2,2-difluoroethyl)piperazine-1-carbonyl]-5,6-dihydrocyclopenta[c]pyrazol-1(4H)-yl}-1-[4-(2,3-dimethylphenyl)piperazin-1-yl]ethan-1-one], the IC50 (IDO1 [1]) was 3.34 nM and the IC50 (IDO1 [2]) was 196 nM.
Compound `Cc1cccc(N2CCN(C(=O)Cn3nc(C(=O)N4CCN(CC(F)(F)F)CC4)c4c3CCC4)CC2)c1C` [Example 158, 1-[4-(2,3-dimethylphenyl)piperazin-1-yl]-2-{3-[4-(2,2,2-trifluoroethyl)piperazine-1-carbonyl]-5,6-dihydrocyclopenta[c]pyrazol-1(4H)-yl}ethan-1-one] has an IC50 (IDO1 [1]) of 3.06 nM and an IC50 (IDO1 [2]) of 375 nM.
`Cc1cccc(N2CCN(C(=O)Cn3nc(C(=O)N4CCC(CCO)CC4)c4c3CCC4)CC2)c1C` [Example 160, 1-[4-(2,3-dimethylphenyl)piperazin-1-yl]-2-{3-[4-(2-hydroxyethyl)piperidine-1-carbonyl]-5,6-dihydrocyclopenta[c]pyrazol-1(4H)-yl}ethan-1-one] gave an IC50 (IDO1 [1]) of 1.65 nM and an IC50 (IDO1 [2]) of 209 nM.
Compound `Cc1cccc(N2CCN(C(=O)Cn3nc(C(=O)N4CCC(C)(CO)CC4)c4c3CCC4)CC2)c1C` [Example 161, 1-[4-(2,3-dimethylphenyl)piperazin-1-yl]-2-{3-[4-(hydroxymethyl)-4-methylpiperidine-1-carbonyl]-5,6-dihydrocyclopenta[c]pyrazol-1(4H)-yl}ethan-1-one] has an IC50 (IDO1 [1]) of 2.42 nM and an IC50 (IDO1 [2]) of 113 nM.
In the case of `Cc1cccc(N2CCN(C(=O)Cn3nc(C(=O)N4CCN(CC(N)=O)CC4)c4c3CCC4)CC2)c1C` [Example 165, 2-[4-(1-{2-[4-(2,3-dimethylphenyl)piperazin-1-yl]-2-oxoethyl}-1,4,5,6-tetrahydrocyclopenta[c]pyrazole-3-carbonyl)piperazin-1-yl]acetamide], the IC50 (IDO1 [1]) is reported as 8.85 nM and the IC50 (IDO1 [2]) is reported as 79 nM.
With `Cc1cccc(N2CCN(C(=O)Cn3nc(C(=O)N4CCN(C)[C@H](C)C4)c4c3CCC4)CC2)c1C` [Example 167, 1-[4-(2,3-dimethylphenyl)piperazin-1-yl]-2-{3-[(3R)-3,4-dimethylpiperazine-1-carbonyl]-5,6-dihydrocyclopenta[c]pyrazol-1(4H)-yl}ethan-1-one] the IC50 (IDO1 [1]) was 7.88 nM and the IC50 (IDO1 [2]) was 189 nM.
`Cc1cccc(N2CCN(C(=O)Cn3nc(C(=O)N4CCN(C5COC5)CC4)c4c3CCC4)CC2)c1C` [Example 168, 1-[4-(2,3-dimethylphenyl)piperazin-1-yl]-2-{3-[4-(oxetan-3-yl)piperazine-1-carbonyl]-5,6-dihydrocyclopenta[c]pyrazol-1(4H)-yl}ethan-1-one] was tested, and the IC50 (IDO1 [1]) was 5.88 nM and the IC50 (IDO1 [2]) was 441 nM.
Work on `COCCN1[C@H](C)CN(C(=O)c2nn(CC(=O)N3CCN(c4cccc(C)c4C)CC3)c3c2CCC3)C[C@@H]1C` [Example 172, 1-[4-(2,3-dimethylphenyl)piperazin-1-yl]-2-{3-[(3R,5S)-4-(2-methoxyethyl)-3,5-dimethylpiperazine-1-carbonyl]-5,6-dihydrocyclopenta[c]pyrazol-1(4H)-yl}ethan-1-one] yielded an IC50 (IDO1 [1]) of 6.12 nM and an IC50 (IDO1 [2]) of 1240 nM.
For `Cc1cccc(N2CCN(C(=O)Cn3nc(C(=O)N4CCN5CCOC[C@H]5C4)c4c3CCC4)CC2)c1C` [Example 173, 1-[4-(2,3-dimethylphenyl)piperazin-1-yl]-2-{3-[(9aR)-hexahydropyrazino[2,1-c][1,4]oxazine-8(1H)-carbonyl]-5,6-dihydrocyclopenta[c]pyrazol-1(4H)-yl}ethan-1-one], the IC50 (IDO1 [1]) was 7.66 nM and the IC50 (IDO1 [2]) was 1670 nM.
With `Cc1cccc(N2CCN(C(=O)Cn3nc(C(=O)N4CCN5CCOC[C@@H]5C4)c4c3CCC4)CC2)c1C` [Example 174, 1-[4-(2,3-dimethylphenyl)piperazin-1-yl]-2-{3-[(9aS)-hexahydropyrazino[2,1-c][1,4]oxazine-8(1H)-carbonyl]-5,6-dihydrocyclopenta[c]pyrazol-1(4H)-yl}ethan-1-one] the IC50 (IDO1 [1]) was 3.75 nM and the IC50 (IDO1 [2]) was 480 nM.
Compound `Cc1cccc(N2CCN(C(=O)Cn3nc(C(=O)N4CCC5(CC4)COCC5O)c4c3CCC4)CC2)c1C` (stereo not drawn) [Example 181, 1-[4-(2,3-dimethylphenyl)piperazin-1-yl]-2-[3-(4-hydroxy-2-oxo-8-azaspiro[4.5]decane-8-carbonyl)-5,6-dihydrocyclopenta[c]pyrazol-1(4H)-yl]ethan-1-one] has an IC50 (IDO1 [1]) of 3.3 nM and an IC50 (IDO1 [2]) of 125 nM.
Compound `Cc1cccc(N2CCN(C(=O)Cn3nc(C(=O)N4CCC(O)(C(F)F)CC4)c4c3CCC4)CC2)c1C` [Example 192, 2-{3-[4-(difluoromethyl)-4-hydroxypiperidine-1-carbonyl]-5,6-dihydrocyclopenta[c]pyrazol-1(4H)-yl}-1-[4-(2,3-dimethylphenyl)piperazin-1-yl]ethan-1-one] has an IC50 (IDO1 [1]) of 1.64 nM and an IC50 (IDO1 [2]) of 196 nM.
Work on `Cc1cccc(N2CCN(C(=O)Cn3nc(C(=O)N4CC[C@H](N)[C@@H](F)C4)c4c3CCC4)CC2)c1C` [Example 203, [(3S,4S)-1-[1-[2-[4-(2,3-dimethylphenyl)piperazin-1-yl]-2-oxo-ethyl]-5,6-dihydro-4H-cyclopenta[c]pyrazole-3-carbonyl]-3-fluoro-4-piperidyl]ammonium; formate] yielded an IC50 (IDO1 [1]) of 13 nM and an IC50 (IDO1 [2]) of 278 nM.
`CC(=O)NC1CCN(C(=O)c2nn(CC(=O)N3CCN(c4cccc(C)c4C)CC3)c3c2[C@@H]2C[C@@H]2C3)CC1` [Example 229, N-{1-[(3bR,4aR)-1-{2-[4-(2,3-dimethylphenyl)piperazin-1-yl]-2-oxoethyl}-3b,4,4a,5-tetrahydro-1H-cyclopropa[3,4]cyclopenta[1,2-c]pyrazole-3-carbonyl]piperidin-4-yl}acetamide] was tested, and the IC50 (IDO1 [1]) was 1.06 nM and the IC50 (IDO1 [2]) was 224 nM.
In the case of `Cc1cccc(N2CCN(C(=O)Cn3nc(C(=O)N4CC[C@@H](C(C)(C)O)C4)c4c3C[C@H]3C[C@@H]43)CC2)c1C` [Example 230, 1-[4-(2,3-dimethylphenyl)piperazin-1-yl]-2-{(3bR,4aR)-3-[(3R)-3-(2-hydroxypropan-2-yl)pyrrolidine-1-carbonyl]-3b,4,4a,5-tetrahydro-1H-cyclopropa[3,4]cyclopenta[1,2-c]pyrazol-1-yl}ethan-1-one], the IC50 (IDO1 [1]) is reported as 1.13 nM and the IC50 (IDO1 [2]) is reported as 801 nM.
With `Cc1cccc(N2CCN(C(=O)Cn3nc(C(=O)N4C[C@@H](C)N[C@@H](C)C4)c4c3C[C@H]3C[C@@H]43)CC2)c1C` [Example 234, 1-[4-(2,3-dimethylphenyl)piperazin-1-yl]-2-{(3bR,4aR)-3-[(3R,5S)-3,5-dimethylpiperazine-1-carbonyl]-3b,4,4a,5-tetrahydro-1H-cyclopropa[3,4]cyclopenta[1,2-c]pyrazol-1-yl}ethan-1-one] the IC50 (IDO1 [1]) was 3.61 nM and the IC50 (IDO1 [2]) was 273 nM.
